In ChEMBL document CHEMBL3885881, “DrugMatrix”:

Organism: Rattus norvegicus
Assay: DrugMatrix - Regimen: Daily Repeat
Assay type: toxicity, organism-based, Sprague-Dawley
Design: regimen Daily Repeat, gender Male, age 6-8 weeks
Conditions: in vivo, po, route oral GAVAGE, vehicle 100 % WATER; for ABSOLUTE BASOPHIL / ABSOLUTE EOSINOPHIL / ABSOLUTE LYMPHOCYTE / ABSOLUTE MONOCYTE / ABSOLUTE SEGMENTED NEUTROPHIL / BASOPHIL / EOSINOPHIL / ERYTHROCYTE COUNT / HEMATOCRIT / HEMOGLOBIN / LEUKOCYTE COUNT / LYMPHOCYTE / MEAN CORPUSCULAR HEMOGLOBIN / MEAN CORPUSCULAR HEMOGLOBIN CONCENTRATION / MEAN CORPUSCULAR VOLUME / MONOCYTE / NEUTROPHIL / NUCLEATED RED BLOOD CELLS / PLATELET COUNT: tissue Blood; for ALANINE AMINOTRANSFERASE / ALBUMIN / ALKALINE PHOSPHATASE / ASPARTATE AMINOTRANSFERASE / BLOOD UREA NITROGEN / CARBON DIOXIDE / CHLORIDE / CHOLESTEROL / CREATINE PHOSPHOKINASE / CREATININE / GLUCOSE / LACTATE DEHYDROGENASE / LIPASE / PHOSPHORUS / POTASSIUM / SODIUM / TOTAL BILIRUBIN / TOTAL PROTEIN / URIC ACID: tissue Plasma
[1] = 160 mg/kg, 120 h, dose level Low, time 5 day
[2] = 1000 mg/kg, 72 h, dose level High, time 3 day
[3] = 1000 mg/kg, 120 h, dose level High, time 5 day

N[C@@H](Cc1ccc(O)c(O)c1)C(=O)O [LEVODOPA]
ABSOLUTE BASOPHIL [1]: 0 CELLS/uL
ABSOLUTE EOSINOPHIL [1]: 0 CELLS/uL
ABSOLUTE LYMPHOCYTE [1]: 7319.33 CELLS/uL
ABSOLUTE MONOCYTE [1]: 56 CELLS/uL
ABSOLUTE SEGMENTED NEUTROPHIL [1]: 1058 CELLS/uL
BASOPHIL [1]: 0%
EOSINOPHIL [1]: 0%
ERYTHROCYTE COUNT [1]: 5.23 x10E6/uL
HEMATOCRIT [1]: 34.27%
HEMOGLOBIN [1]: 13 G/DL
LEUKOCYTE COUNT [1]: 8.43 x10E3/uL
LYMPHOCYTE [1]: 87.67%
MEAN CORPUSCULAR HEMOGLOBIN [1]: 25.13 pg
MEAN CORPUSCULAR HEMOGLOBIN CONCENTRATION [1]: 38 G/DL
MEAN CORPUSCULAR VOLUME [1]: 66.13 fL
MONOCYTE [1]: 0.67%
NEUTROPHIL [1]: 11.67%
NUCLEATED RED BLOOD CELLS [1]: 0 /100WBC
PLATELET COUNT [1]: 1259.67 x10E3/uL
ALANINE AMINOTRANSFERASE [1]: 48 u/L
ALBUMIN [1]: 4.1 G/DL
ALKALINE PHOSPHATASE [1]: 360.33 u/L
ASPARTATE AMINOTRANSFERASE [1]: 84.33 u/L
BLOOD UREA NITROGEN [1]: 16 mg/dL
CARBON DIOXIDE [1]: 30.33 mmol/L
CHLORIDE [1]: 103 MEQ/L
CHOLESTEROL [1]: 58 mg/dL
CREATINE PHOSPHOKINASE [1]: 286.33 u/L
CREATININE [1]: 0.17 mg/dL
GLUCOSE [1]: 137 mg/dL
LACTATE DEHYDROGENASE [1]: 128 u/L
LIPASE [1]: 10 u/L
PHOSPHORUS [1]: 10.63 mg/dL
POTASSIUM [1]: 6.08 MEQ/L
SODIUM [1]: 145.37 MEQ/L
TOTAL BILIRUBIN [1]: 0.17 mg/dL
TOTAL PROTEIN [1]: 5.97 G/DL
URIC ACID [1]: 1.03 mg/dL
ABSOLUTE BASOPHIL [2]: 0 CELLS/uL
ABSOLUTE EOSINOPHIL [2]: 0 CELLS/uL
ABSOLUTE LYMPHOCYTE [2]: 14031 CELLS/uL
ABSOLUTE MONOCYTE [2]: 188.67 CELLS/uL
ABSOLUTE SEGMENTED NEUTROPHIL [2]: 780.33 CELLS/uL
BASOPHIL [2]: 0%
EOSINOPHIL [2]: 0%
ERYTHROCYTE COUNT [2]: 5.75 x10E6/uL
HEMATOCRIT [2]: 36.23%
HEMOGLOBIN [2]: 13.9 G/DL
LEUKOCYTE COUNT [2]: 15 x10E3/uL
LYMPHOCYTE [2]: 93.33%
MEAN CORPUSCULAR HEMOGLOBIN [2]: 24.2 pg
MEAN CORPUSCULAR HEMOGLOBIN CONCENTRATION [2]: 38.37 G/DL
MEAN CORPUSCULAR VOLUME [2]: 63 fL
MONOCYTE [2]: 1%
NEUTROPHIL [2]: 5.67%
NUCLEATED RED BLOOD CELLS [2]: 0.33 /100WBC
PLATELET COUNT [2]: 1320 x10E3/uL
ALANINE AMINOTRANSFERASE [2]: 57.33 u/L
ALBUMIN [2]: 4.13 G/DL
ALKALINE PHOSPHATASE [2]: 415 u/L
ASPARTATE AMINOTRANSFERASE [2]: 88 u/L
BLOOD UREA NITROGEN [2]: 14 mg/dL
CARBON DIOXIDE [2]: 32 mmol/L
CHLORIDE [2]: 101.67 MEQ/L
CHOLESTEROL [2]: 54.33 mg/dL
CREATINE PHOSPHOKINASE [2]: 336.67 u/L
CREATININE [2]: 0.2 mg/dL
GLUCOSE [2]: 120 mg/dL
LACTATE DEHYDROGENASE [2]: 167.33 u/L
LIPASE [2]: 10.33 u/L
PHOSPHORUS [2]: 11 mg/dL
POTASSIUM [2]: 6.09 MEQ/L
SODIUM [2]: 145.53 MEQ/L
TOTAL BILIRUBIN [2]: 0.17 mg/dL
TOTAL PROTEIN [2]: 6.07 G/DL
URIC ACID [2]: 0.8 mg/dL
ABSOLUTE BASOPHIL [3]: 0 CELLS/uL
ABSOLUTE EOSINOPHIL [3]: 0 CELLS/uL
ABSOLUTE LYMPHOCYTE [3]: 11289.33 CELLS/uL
ABSOLUTE MONOCYTE [3]: 104.67 CELLS/uL
ABSOLUTE SEGMENTED NEUTROPHIL [3]: 539.33 CELLS/uL
BASOPHIL [3]: 0%
EOSINOPHIL [3]: 0%
ERYTHROCYTE COUNT [3]: 6.06 x10E6/uL
HEMATOCRIT [3]: 37.27%
HEMOGLOBIN [3]: 14.47 G/DL
LEUKOCYTE COUNT [3]: 11.93 x10E3/uL
LYMPHOCYTE [3]: 95.33%
MEAN CORPUSCULAR HEMOGLOBIN [3]: 23.87 pg
MEAN CORPUSCULAR HEMOGLOBIN CONCENTRATION [3]: 38.83 G/DL
MEAN CORPUSCULAR VOLUME [3]: 61.43 fL
MONOCYTE [3]: 0.67%
NEUTROPHIL [3]: 4%
NUCLEATED RED BLOOD CELLS [3]: 0 /100WBC
PLATELET COUNT [3]: 1582 x10E3/uL
ALANINE AMINOTRANSFERASE [3]: 46.33 u/L
ALBUMIN [3]: 4.17 G/DL
ALKALINE PHOSPHATASE [3]: 308.33 u/L
ASPARTATE AMINOTRANSFERASE [3]: 68 u/L
BLOOD UREA NITROGEN [3]: 20.33 mg/dL
CARBON DIOXIDE [3]: 33.67 mmol/L
CHLORIDE [3]: 101.67 MEQ/L
CHOLESTEROL [3]: 59.33 mg/dL
CREATINE PHOSPHOKINASE [3]: 271.67 u/L
CREATININE [3]: 0.21 mg/dL
GLUCOSE [3]: 124 mg/dL
LACTATE DEHYDROGENASE [3]: 116.67 u/L
LIPASE [3]: 10 u/L
PHOSPHORUS [3]: 10.37 mg/dL
POTASSIUM [3]: 6.24 MEQ/L
SODIUM [3]: 147.43 MEQ/L
TOTAL BILIRUBIN [3]: 0.17 mg/dL
TOTAL PROTEIN [3]: 6.13 G/DL
URIC ACID [3]: 1.2 mg/dL
